Experimental data from US8530512B2, “Broad spectrum gram-positive antimicrobials and anthelmintics with efficacy against drug-resistant strains and Mycobacterium species” (priority 2004, dated 2013).
≈ marks a conversion by molar mass, not a printed value. Like-named read-outs stand apart in the source and are kept apart here.

Legend:
[1] = test system: M. smegmatis; assay: MIC assay; assay type: cell-based; details: Mycolicibacterium smegmatis, read-out: MIC M. smegmatis
[2] = test system: C. elegans L1 larvae; assay: developmental assay; assay type: in vivo; set-up: key to Developmental score, 1/1600 / Developmental score, 1/800 / Developmental score, 1/400 / Developmental score, 1/200 / Developmental score, 1/100: dead (+++); distressed (++); slightly delayed (+); the same as M9-only untreated wells (−); details: for Developmental score, 1/100: dilution 1/100; for Developmental score, 1/100 / Developmental score, 1/200 / Developmental score, 1/400 / Developmental score, 1/800 / Developmental score, 1/1600: after four days, Ive 1 ng/μL in each well; for Developmental score, 1/200: dilution 1/200; for Developmental score, 1/400: dilution 1/400; for Developmental score, 1/800: dilution 1/800; for Developmental score, 1/1600: dilution 1/1600
[3] = test system: Staphylococcus aureus ATCC 29213; assay: microbe, parasite or virus in culture; assay type: cell-based; details: Staphylococcus aureus, ATCC29213; per-compound listing, Example 6; read-out: MIC S. aureus
[4] = test system: Staphylococcus aureus MRSA MC-1; assay: microbe, parasite or virus in culture; assay type: cell-based; details: Staphylococcus aureus, MRSA, read-out: MIC MRSA
[5] = test system: Streptococcus pyogenes; assay: microbe, parasite or virus in culture; assay type: cell-based; details: for MIC: Streptococcus pyogenes, per-compound listing, Example 6, read-out: MIC S. pyogenes; for MIC S. pyogenes, G+: Table 3
[6] = test system: C. elegans; assay: motility assay; assay type: in vivo; set-up: key to Movement score, 1/1600 / Movement score, 1/800 / Movement score, 1/400 / Movement score, 1/200 / Movement score, 1/100: normal (−); slow (+); very slow (++); not motile/paralyzed (+++); details: for Movement score, 1/100: dilution 1/100 of stock (10.24 μg/μL; SK-03-92 1.024 μg/μL); for Movement score, 1/100 / Movement score, 1/200 / Movement score, 1/400 / Movement score, 1/800 / Movement score, 1/1600: Ive 1 ng/μL in all wells; for Movement score, 1/200: dilution 1/200 of stock (10.24 μg/μL; SK-03-92 1.024 μg/μL); for Movement score, 1/400: dilution 1/400 of stock (10.24 μg/μL; SK-03-92 1.024 μg/μL); for Movement score, 1/800: dilution 1/800 of stock (10.24 μg/μL; SK-03-92 1.024 μg/μL); for Movement score, 1/1600: dilution 1/1600 of stock (10.24 μg/μL; SK-03-92 1.024 μg/μL), overnight 20° C.; for effect on worms at the lowest concentrations tested: at least triplicate
[7] = test system: Bacillus cereus; assay: microbe, parasite or virus in culture; assay type: cell-based; details: for MIC: Bacillus cereus, per-compound listing, Example 6, read-out: MIC B. cereus; for MIC B. cereus, G+ (anthrax surrogate): Table 3
[8] = test system: Enterococcus faecium VRE 1; assay: organism not typed; assay type: cell-based; details: for MIC E. faecium VRE 1, G+: Table 3; for MIC: read-out: MIC VRE
[9] = per-compound listing, Example 6

Compound | MIC [1, 9] [µg/mL] | Developmental score, 1/100 [2] | Developmental score, 1/200 [2] | Developmental score, 1/400 [2] | Developmental score, 1/800 [2] | Developmental score, 1/1600 [2] | MIC [3] [µg/mL] | MIC [4] [µg/mL] | MIC [5] [µg/mL] | MIC S. pyogenes, G+ [5] [µg/mL] | Movement score, 1/100 [6] | Movement score, 1/200 [6] | Movement score, 1/400 [6] | Movement score, 1/800 [6] | Movement score, 1/1600 [6] | MIC [7] [µg/mL] | MIC B. cereus, G+ (anthrax surrogate) [7] [µg/mL] | MIC E. faecium VRE 1, G+ [8] [µg/mL] | MIC [8] [µg/mL] | also measured
COc1cc(O)cc(/C=C/c2ccsc2)c1 [CL-5, (E)-3-[2-(3-Hydroxy-5-methoxy)-vinyl]thiophene] | 128 (≈ 551 µM) | +++ | +++ | +++ | +++ | + | 16 (≈ 68.9 µM) | 32 (≈ 138 µM) | 4 (≈ 17.2 µM) | 4 (≈ 17.2 µM) | +++ | +++ | +++ | +++ | ++ | 32 (≈ 138 µM) | 32 (≈ 138 µM) | 32 (≈ 138 µM) | 32 (≈ 138 µM) | effect at the two highest dilutions [2]: death or delays in development; effect on worms at the lowest concentration tested (most active) ([6]; lowest concentration tested): severe distress; effect on worms at the lowest concentrations tested [6]: reduced motility, paralysis, or death
COc1cc(O)cc(/C=C/c2ccc3ccccc3c2)c1 [SK-03-28F2] | 256 (≈ 926 µM) | +++ | +++ | − | − | − | 8 (≈ 29 µM) |  |  |  | +++ | +++ | ++ | ++ | − | 16 (≈ 57.9 µM) |  |  |  | effect on worms at the lowest concentrations tested [6]: reduced motility, paralysis, or death
Oc1cc(O)cc(/C=C/c2ccc3ccccc3c2)c1 [SK-03-28F3] | > 512 |  |  |  |  |  | 8 (≈ 30.5 µM) | 256 (≈ 976 µM) |  |  |  |  |  |  |  | 8 (≈ 30.5 µM) |  |  |  | 
COc1cc(O)cc(/C=C/Sc2ccc(C(C)(C)C)cc2)c1 [SK-05-04] | 128 (≈ 407 µM) |  |  |  |  |  | 16 (≈ 50.9 µM) |  |  |  |  |  |  |  |  | 8 (≈ 25.4 µM) |  |  |  | 
Oc1cc(O)cc(/C=C/c2csc3ccccc23)c1 [SK-03-44F2] |  |  |  |  |  |  | 32 (≈ 119 µM) | > 512 |  |  |  |  |  |  |  | 256 (≈ 954 µM) |  |  |  | MIC [1]: > 512 µg/mL
COc1cc(O)cc(/C=C/Oc2cccc(OC)c2)c1 [Compound A8, 3-Methoxyphenyl-E-(3-hydroxy-5-methoxy)-styryl ether] | 128 (≈ 470 µM) | +++ | +++ | − | − | − | 32 (≈ 118 µM) | 64 (≈ 235 µM) | 16 (≈ 58.8 µM) | 16 (≈ 58.8 µM) | +++ | ++ | ++ | + | + | 64 (≈ 235 µM) | 64 (≈ 235 µM) | 64 (≈ 235 µM) | 64 (≈ 235 µM) | 
COc1cc(O)cc(/C=C/Oc2ccccc2)c1 [CL-1, Phenyl-E-(3-hydroxy-5-methoxy)-styryl ether] | 128 (≈ 528 µM) |  |  |  |  |  | 32 (≈ 132 µM) | 64 (≈ 264 µM) | 32 (≈ 132 µM) | 32 (≈ 132 µM) | +++ | +++ | − | − | − | 32 (≈ 132 µM) | 16 (≈ 66 µM) | 64 (≈ 264 µM) | 64 (≈ 264 µM) | 
COc1cc(O)cc(/C=C/Oc2ccccc2C)c1 [Compound A11, 2-Methylphenyl-E-(3-hydroxy-5-methoxy)-styryl ether] | > 128 |  |  |  |  |  | 16 (≈ 62.4 µM) | 32 (≈ 125 µM) | 32 (≈ 125 µM) | 32 (≈ 125 µM) |  |  |  |  |  | 32 (≈ 125 µM) | 64 (≈ 250 µM) | 32 (≈ 125 µM) | 32 (≈ 125 µM) | 
